Assay results taken from patent US20140243335A1, “SUBSTITUTED HYDOXAMIC ACIDS AND USES THEREOF” (Millennium Pharmaceuticals, Inc., priority 2010, published 2014).

Molecular target: T1, purified human HDAC6 (Homo sapiens, UniProt Q9UBN7)
T1 construct: purchased BPS Bioscience 5006
T1 sequence (Q9UBN7 1-1215): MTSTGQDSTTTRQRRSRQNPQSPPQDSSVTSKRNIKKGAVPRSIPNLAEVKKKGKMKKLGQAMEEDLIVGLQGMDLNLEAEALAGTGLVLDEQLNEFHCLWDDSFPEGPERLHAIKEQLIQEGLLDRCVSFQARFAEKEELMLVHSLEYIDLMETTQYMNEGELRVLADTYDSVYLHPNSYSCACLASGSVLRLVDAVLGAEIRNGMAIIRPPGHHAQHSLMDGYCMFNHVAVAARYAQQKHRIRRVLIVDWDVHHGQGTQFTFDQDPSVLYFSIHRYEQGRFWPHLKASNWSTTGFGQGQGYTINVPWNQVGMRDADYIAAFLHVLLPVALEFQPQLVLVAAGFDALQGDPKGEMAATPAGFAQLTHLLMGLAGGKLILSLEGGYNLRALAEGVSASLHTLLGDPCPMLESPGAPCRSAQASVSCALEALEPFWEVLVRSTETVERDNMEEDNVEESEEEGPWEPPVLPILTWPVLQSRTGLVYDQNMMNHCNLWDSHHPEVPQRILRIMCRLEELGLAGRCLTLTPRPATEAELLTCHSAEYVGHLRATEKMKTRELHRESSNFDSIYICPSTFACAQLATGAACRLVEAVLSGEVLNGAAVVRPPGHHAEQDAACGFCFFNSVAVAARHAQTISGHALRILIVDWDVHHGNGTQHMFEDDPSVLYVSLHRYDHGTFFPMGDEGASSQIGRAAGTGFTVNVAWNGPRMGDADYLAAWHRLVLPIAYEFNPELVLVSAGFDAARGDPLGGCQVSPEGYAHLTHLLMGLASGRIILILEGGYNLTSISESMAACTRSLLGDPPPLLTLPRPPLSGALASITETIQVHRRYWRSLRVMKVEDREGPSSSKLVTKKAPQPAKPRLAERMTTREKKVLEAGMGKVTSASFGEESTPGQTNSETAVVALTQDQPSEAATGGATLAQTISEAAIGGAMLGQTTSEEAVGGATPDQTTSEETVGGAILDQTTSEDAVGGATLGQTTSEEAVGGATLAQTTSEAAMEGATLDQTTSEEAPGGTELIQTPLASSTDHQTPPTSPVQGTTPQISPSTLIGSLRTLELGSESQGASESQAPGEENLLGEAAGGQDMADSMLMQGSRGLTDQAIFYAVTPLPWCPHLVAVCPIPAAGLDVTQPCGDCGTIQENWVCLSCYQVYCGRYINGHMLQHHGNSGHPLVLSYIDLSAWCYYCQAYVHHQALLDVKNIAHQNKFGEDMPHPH
Experiment: HDAC6 Enzyme Assay
Type: biochemical
Settings: HDAC6 inhibition at a compound concentration of 0.412 μM; read-out: Percent Inhibition at 0.412 μM

Row | SMILES | inhibition at 0.412 µM [%]
1 | O=C(NO)c1ccc2c(c1)C1CCC2N1C(=O)c1ccccn1 (centres unmarked) [Compound I-210, N-hydroxy-9-(pyridin-2-ylcarbonyl)-1,2,3,4-tetrahydro-1,4-epiminonaphthalene-6-carboxamide] | 28
2 | O=C(NO)c1ccc2c(c1)CC(c1cccnc1)CC2 (centres unmarked) [Compound I-120, N-hydroxy-7-pyridin-3-yl-5,6,7,8-tetrahydronaphthalene-2-carboxamide] | 85
3 | COc1ccccc1C(=O)NC1CCc2cc(C(=O)NO)ccc2C1 (centres unmarked) [Compound I-122, N-hydroxy-6-[(2-methoxybenzoyl)amino]-5,6,7,8-tetrahydronaphthalene-2-carboxamide] | 88
4 | O=C(NO)c1ccc2c(c1)CCCC2NC(=O)c1cc2ccccc2o1 (centres unmarked) [Compound I-45, N-{6-[(hydroxyamino)carbonyl]-1,2,3,4-tetrahydronaphthalen-1-yl}-1-benzofuran-2-carboxamide] | 47
5 | CCCC(=O)N1C2CCC1c1cc(C(=O)NO)ccc12 (centres unmarked) [Compound I-207, 9-butyryl-N-hydroxy-1,2,3,4-tetrahydro-1,4-epiminonaphthalene-6-carboxamide] | 25
6 | Cc1onc(-c2ccccc2Cl)c1C(=O)NC1CCCc2cc(C(=O)NO)ccc21 (centres unmarked) [Compound I-38, 3-(2-chlorophenyl)-N-{6-[(hydroxyamino)carbonyl]-1,2,3,4-tetrahydronaphthalen-1-yl}-5-methylisoxazole-4-carboxamide] | 18
7 | O=C(NO)c1ccc2c(c1)CCC(Oc1ccnc(NC(=O)C3CCNCC3)c1)C2 (centres unmarked) [Compound I-225, N-[4-({6-[(hydroxyamino)carbonyl]-1,2,3,4-tetrahydronaphthalen-2-yl}oxy)pyridin-2-yl]piperidine-4-carboxamide] | 95
8 | O=C(Cc1ccc(C(F)(F)F)cc1)NC1CCCc2cc(C(=O)NO)ccc21 (centres unmarked) [Compound I-10, N-hydroxy-5-({[4-(trifluoromethyl)phenyl]acetyl}amino)-5,6,7,8-tetrahydronaphthalene-2-carboxamide] | 20
9 | O=C(NO)c1ccc2c(c1)CCC(NC(=O)C13CC4CC(CC(C4)C1)C3)C2 (centres unmarked) [Compound I-57, N-{6-[(hydroxyamino)carbonyl]-1,2,3,4-tetrahydronaphthalen-2-yl}adamantane-1-carboxamide] | 59
10 | Cc1cc(C)n(CC(=O)NC2CCCc3cc(C(=O)NO)ccc32)n1 (centres unmarked) [Compound I-11, 5-{[(3,5-dimethyl-1H-pyrazol-1-yl)acetyl]amino}-N-hydroxy-5,6,7,8-tetrahydronaphthalene-2-carboxamide] | 21
11 | O=C(NO)c1ccc2c(c1)CCCC2NC(=O)c1ccsc1 (centres unmarked) [Compound I-3, N-{6-[(hydroxyamino)carbonyl]-1,2,3,4-tetrahydronaphthalen-1-yl}thiophene-3-carboxamide] | 36
12 | O=C(NO)c1ccc2c(c1)C1CCC2N1C(=O)c1ccc(-c2ccccc2)cc1 (centres unmarked) [Compound I-199, 9-(biphenyl-4-ylcarbonyl)-N-hydroxy-1,2,3,4-tetrahydro-1,4-epiminonaphthalene-6-carboxamide] | 70
13 | O=C(Nc1ccccc1)NC1CCc2ccc(C(=O)NO)cc2C1 (centres unmarked) [Compound I-94, 7-[(anilinocarbonyl)amino]-N-hydroxy-5,6,7,8-tetrahydronaphthalene-2-carboxamide] | 96

Next, values leading:

Row | inhibition at 0.412 µM [%] | SMILES
14 | 42 | COc1cccc(C2CCc3cc(C(=O)NO)ccc3C2)c1 (centres unmarked) [Compound I-110, N-hydroxy-6-(3-methoxyphenyl)-5,6,7,8-tetrahydronaphthalene-2-carboxamide]
15 | 47 | O=C(NO)c1ccc2c(c1)CCCC2NC(=O)c1cnc2ccccc2n1 (centres unmarked) [Compound I-9, N-{6-[(hydroxyamino)carbonyl]-1,2,3,4-tetrahydronaphthalen-1-yl}quinoxaline-2-carboxamide]
16 | 43 | COc1ccc(C2CCc3cc(C(=O)NO)ccc3C2)cc1 (centres unmarked) [Compound I-105, N-hydroxy-6-(4-methoxyphenyl)-5,6,7,8-tetrahydronaphthalene-2-carboxamide]
17 | 84 | O=C(NO)c1ccc2c(c1)CC(c1ccccc1)CC2 (centres unmarked) [Compound I-89, N-hydroxy-7-phenyl-5,6,7,8-tetrahydronaphthalene-2-carboxamide]
18 | 11 | CC(=O)N/C(=C\c1ccccc1)C(=O)NC1CCCc2cc(C(=O)NO)ccc21 (centres unmarked) [Compound I-27, 5-{[(2Z)-2-(acetylamino)-3-phenylprop-2-enoyl]amino}-N-hydroxy-5,6,7,8-tetrahydronaphthalene-2-carboxamide]
19 | 95 | O=C(NO)c1ccc2c(c1)CCC(Oc1ccncc1)C2 (centres unmarked) [Compound I-108, N-hydroxy-6-(pyridin-4-yloxy)-5,6,7,8-tetrahydronaphthalene-2-carboxamide]
20 | 92 | CC(=O)Nc1cc(C2CCc3ccc(C(=O)NO)cc3C2)ccn1 (centres unmarked) [Compound I-97, 7-[2-(acetylamino)pyridin-4-yl]-N-hydroxy-5,6,7,8-tetrahydronaphthalene-2-carboxamide]
21 | 85 | O=C(NO)c1ccc2c(c1)CCC(NC(=O)c1cnn(-c3ccccc3)c1)C2 (centres unmarked) [Compound I-58, N-{6-[(hydroxyamino)carbonyl]-1,2,3,4-tetrahydronaphthalen-2-yl}-1-phenyl-1H-pyrazole-4-carboxamide]
22 | 20 | Cc1cc(C(=O)NC2CCCc3cc(C(=O)NO)ccc32)n(C(C)(C)C)n1 (centres unmarked) [Compound I-19, 1-tert-butyl-N-{6-[(hydroxyamino)carbonyl]-1,2,3,4-tetrahydronaphthalen-1-yl}-3-methyl-1H-pyrazole-5-carboxamide]
23 | 26 | COc1ccc2c(CC(=O)NC3CCCc4cc(C(=O)NO)ccc43)coc2c1 (centres unmarked) [Compound I-36, N-hydroxy-5-{[(6-methoxy-1-benzofuran-3-yl)acetyl]amino}-5,6,7,8-tetrahydronaphthalene-2-carboxamide]
24 | 53 | O=C(NO)c1ccc2c(c1)CCC(c1cccc(C(F)(F)F)c1)C2 (centres unmarked) [Compound I-113, N-hydroxy-6-[3-(trifluoromethyl)phenyl]-5,6,7,8-tetrahydronaphthalene-2-carboxamide]
25 | 92 | O=C(NO)c1ccc2c(c1)CCC(Oc1ccnc(C(=O)NC3CCNCC3)c1)C2 (centres unmarked) [Compound I-220, 4-({6-[(hydroxyamino)carbonyl]-1,2,3,4-tetrahydronaphthalen-2-yl}oxy)-N-piperidin-4-ylpyridine-2-carboxamide]
26 | 75 | CCOC1CCc2ccc(C(=O)NO)cc2C1 (centres unmarked) [Compound I-118, 7-ethoxy-N-hydroxy-5,6,7,8-tetrahydronaphthalene-2-carboxamide]
27 | 91 | O=C(NO)c1ccc2c(c1)CC(Oc1ccncc1)CC2 (centres unmarked) [Compound I-86, N-hydroxy-7-(pyridin-4-yloxy)-5,6,7,8-tetrahydronaphthalene-2-carboxamide]
28 | 87 | COc1cccc(C(=O)NC2CCc3cc(C(=O)NO)ccc3C2)c1 (centres unmarked) [Compound I-112, N-hydroxy-6-[(3-methoxybenzoyl)amino]-5,6,7,8-tetrahydronaphthalene-2-carboxamide]
29 | 15 | O=C(NO)c1ccc2c(c1)CCCC2NC(=O)c1cc(C(F)(F)F)cc(C(F)(F)F)c1 (centres unmarked) [Compound I-12, 5-{[3,5-bis(trifluoromethyl)benzoyl]amino}-N-hydroxy-5,6,7,8-tetrahydronaphthalene-2-carboxamide]
